In brackets after ≈: the same amount, converted by molar mass.
Legend:
E. faecalis VSE 1 = assay: MIC, broth microdilution, vancomycin-sensitive E. faecalis (VSE 1); assay type: cell-based, Enterococcus faecalis; conditions: for MIC: Enterococcus faecalis VSE 1 (vancomycin-sensitive), read-out: MIC; for MIC-fold improvement vs. vancomycin: VSE 1, ratio of MIC of vancomycin and MIC of analogue
Summary of the method: (§1)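 MIC values come from broth microdilution run to CLSI susceptibility-testing standards. Ultrapure water and uninoculated broth served as controls. In one series, vancomycin at a final 10 μM was co-dosed with the analogue or comparator antibiotic.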

E. faecalis VRE 6 = assay: MIC, broth microdilution, vancomycin-resistant E. faecalis VRE 6 (VanA); assay type: cell-based, Enterococcus faecalis; conditions: for MIC: Enterococcus faecalis VRE 6 (vancomycin-resistant), read-out: MIC; for MIC-fold improvement vs. vancomycin: VRE 6, ratio of MIC of vancomycin and MIC of analogue
Summary of the method: as §1

E. faecalis VRE 53 = assay: MIC, broth microdilution, vancomycin-resistant E. faecalis VRE 53 (VanA); assay type: cell-based, Enterococcus faecalis; conditions: for MIC: Enterococcus faecalis VRE 53 (vancomycin-resistant), read-out: MIC; for MIC-fold improvement vs. vancomycin: VRE 53, ratio of MIC of vancomycin and MIC of analogue
Summary of the method: as §1

E. faecalis VRE 29 = assay: MIC, broth microdilution, vancomycin-resistant E. faecalis VRE 29 (VanA); assay type: cell-based, Enterococcus faecalis; conditions: for MIC: Enterococcus faecalis VRE 29 (vancomycin-resistant), read-out: MIC; for MIC-fold improvement vs. vancomycin: VRE 29, ratio of MIC of vancomycin and MIC of analogue
Summary of the method: as §1

E. faecalis VRE 37 = assay: MIC, broth microdilution, vancomycin-resistant E. faecalis VRE 37 (VanA); assay type: cell-based, Enterococcus faecalis; conditions: for MIC: Enterococcus faecalis VRE 37 (vancomycin-resistant), read-out: MIC
Summary of the method: as §1

[1] = tested on: Murine leukemia (L1210) cells; assay: Cytostatic activity, L1210 cell proliferation; assay type: cell-based; conditions: mean ± SD of three experiments; highest concentration tested 250 µM; 2 days; read-out: Toxicity (IC50) L1210
Summary of the method: (§2)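 Coulter counter cell counts after 37°C culture with compound; IC50 = concentration giving 50% growth inhibition vs negative control. Incubation: L1210 2 d, CEM 3 d, HeLa 4 d. Suspension density before mixing with an equal volume of dilution: 300,000–500,000 cells/mL.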

[2] = tested on: human T-lymphocyte (CEM) cells; assay: Cytostatic activity, CEM cell proliferation; assay type: cell-based; conditions: mean ± SD of three experiments; highest concentration tested 250 µM; 3 days; read-out: Toxicity (IC50) CEM
Summary of the method: as §2

[3] = tested on: human cervix carcinoma (HeLa) cells; assay: Cytostatic activity, HeLa cell proliferation; assay type: cell-based; conditions: mean ± SD of three experiments; highest concentration tested 250 µM; 4 days; read-out: Toxicity (IC50) HeLa
Summary of the method: as §2

[4] = tested on: L1210, CEM and HeLa cell lines; assay: Cytostatic activity, average or summary over L1210, CEM and HeLa; assay type: cell-based; conditions: average of L1210, CEM and HeLa; read-out: Toxicity (IC50) Average
Summary of the method: as §2

[5] = tested on: S. aureus VSSA (ATCC 6538); assay: MIC, broth microdilution, vancomycin-sensitive S. aureus (VSSA/MSSA, ATCC 6538); assay type: cell-based, Staphylococcus aureus; conditions: for MIC: Staphylococcus aureus VSSA, read-out: MIC; for MIC-fold improvement vs. vancomycin: VSSA, ratio of MIC of vancomycin and MIC of analogue
Summary of the method: as §1

S. aureus VISA/HIP5827 = assay: MIC, broth microdilution, vancomycin-intermediate S. aureus VISA HIP5827; assay type: cell-based, Staphylococcus aureus; conditions: for MIC: Staphylococcus aureus VISA/HIP5827, read-out: MIC; for MIC-fold improvement vs. vancomycin: VISA/HIP5827, ratio of MIC of vancomycin and MIC of analogue
Summary of the method: as §1

S. aureus VRSA = assay: MIC, broth microdilution, vancomycin-resistant S. aureus (VRSA); assay type: cell-based, Staphylococcus aureus; conditions: for MIC: Staphylococcus aureus VRSA, read-out: MIC; for MIC-fold improvement vs. vancomycin: VRSA, ratio of MIC of vancomycin and MIC of analogue
Summary of the method: as §1

MRSA KS2 = assay: MIC, broth microdilution, MRSA KS2; assay type: cell-based, Staphylococcus aureus; conditions: for MIC-fold improvement vs. vancomycin: MRSA KS2, ratio of MIC of vancomycin and MIC of analogue; for MIC: Staphylococcus aureus MRSA KS2, read-out: MIC
Summary of the method: as §1

MRSA KS6 = assay: MIC, broth microdilution, MRSA KS6; assay type: cell-based, Staphylococcus aureus; conditions: for MIC-fold improvement vs. vancomycin: MRSA KS6, ratio of MIC of vancomycin and MIC of analogue; for MIC: Staphylococcus aureus MRSA KS6, read-out: MIC
Summary of the method: as §1

MRSA KS89 = assay: MIC, broth microdilution, MRSA KS89; assay type: cell-based, Staphylococcus aureus; conditions: for MIC-fold improvement vs. vancomycin: MRSA KS8, ratio of MIC of vancomycin and MIC of analogue; for MIC: Staphylococcus aureus MRSA KS8, read-out: MIC
Summary of the method: as §1

MRSA KS1 = assay: MIC, broth microdilution, MRSA KS1; assay type: cell-based, Staphylococcus aureus; conditions: for MIC-fold improvement vs. vancomycin: MRSA KS1, ratio of MIC of vancomycin and MIC of analogue; for MIC: Staphylococcus aureus MRSA KS1, read-out: MIC
Summary of the method: as §1

SMILES: CNC(CC(C)C)C(=O)NC1C(=O)NC(CC(N)=O)C(=O)NC2C(=O)NC3C(=O)NC(C(=O)NC(C(=O)NCCNC(=O)C4c5ccccc5-c5ccccc54)c4cc(O)cc(O)c4-c4cc3ccc4O)C(O)c3ccc(c(Cl)c3)Oc3cc2cc(c3OC2OC(CO)C(O)C(O)C2OC2CC(C)(N)C(O)C(C)O2)Oc2ccc(cc2Cl)C1O (stereo not shown) [Vanc-46]
- MIC (E. faecalis VSE 1): 0.78 µM (≈ 1.31 µg/mL)
- MIC-fold improvement vs. vancomycin (E. faecalis VSE 1): 2
- MIC (E. faecalis VRE 6): 6.25 µM (≈ 10.5 µg/mL)
- MIC-fold improvement vs. vancomycin (E. faecalis VRE 6): 32
- MIC (E. faecalis VRE 53): 25 µM (≈ 42.1 µg/mL)
- MIC-fold improvement vs. vancomycin (E. faecalis VRE 53): 16
- MIC (E. faecalis VRE 29): 25 µM (≈ 42.1 µg/mL)
- MIC-fold improvement vs. vancomycin (E. faecalis VRE 29): 16
- MIC (E. faecalis VRE 37): 25 µM (≈ 42.1 µg/mL)
- MIC-fold improvement vs. vancomycin (E. faecalis VRE 37; VRE 37, ratio of MIC of vancomycin and MIC of analogue): 16
- IC50 [1]: 197 ± 18 µM
- IC50 [2]: 235 ± 21 µM
- IC50 [3]: 108 ± 9 µM
- IC50 [4]: 180 µM
- MIC [5]: 0.78 µM (≈ 1.31 µg/mL)
- MIC-fold improvement vs. vancomycin [5]: 1
- MIC (S. aureus VISA/HIP5827): 1.56 µM (≈ 2.63 µg/mL)
- MIC-fold improvement vs. vancomycin (S. aureus VISA/HIP5827): 4
- MIC (S. aureus VRSA): 6.25 µM (≈ 10.5 µg/mL)
- MIC-fold improvement vs. vancomycin (S. aureus VRSA): 16
- MIC-fold improvement vs. vancomycin (MRSA KS2): 2
- MIC (MRSA KS2): 0.39 µM (≈ 0.657 µg/mL)
- MIC-fold improvement vs. vancomycin (MRSA KS6): 0.25
- MIC (MRSA KS6): 3.13 µM (≈ 5.27 µg/mL)
- MIC-fold improvement vs. vancomycin (MRSA KS89): 2
- MIC (MRSA KS89): 0.39 µM (≈ 0.657 µg/mL)
- MIC-fold improvement vs. vancomycin (MRSA KS1): 1
- MIC (MRSA KS1): 0.78 µM (≈ 1.31 µg/mL)

SMILES: CNC(CC(C)C)C(=O)NC1C(=O)NC(CC(N)=O)C(=O)NC2C(=O)NC3C(=O)NC(C(=O)NC(C(=O)NCCCNC(=O)c4ccc(-c5ccccc5)cc4)c4cc(O)cc(O)c4-c4cc3ccc4O)C(O)c3ccc(c(Cl)c3)Oc3cc2cc(c3OC2OC(CO)C(O)C(O)C2OC2CC(C)(N)C(O)C(C)O2)Oc2ccc(cc2Cl)C1O (stereo not shown) [Vanc-33]
- MIC (E. faecalis VSE 1): 0.20 µM (≈ 0.337 µg/mL)
- MIC-fold improvement vs. vancomycin (E. faecalis VSE 1): 8
- MIC (E. faecalis VRE 6): 1.56 µM (≈ 2.63 µg/mL)
- MIC-fold improvement vs. vancomycin (E. faecalis VRE 6): 128
- MIC (E. faecalis VRE 53): 25 µM (≈ 42.1 µg/mL)
- MIC-fold improvement vs. vancomycin (E. faecalis VRE 53): 16
- MIC (E. faecalis VRE 29): 6.25 µM (≈ 10.5 µg/mL)
- MIC-fold improvement vs. vancomycin (E. faecalis VRE 29): 64
- MIC (E. faecalis VRE 37): 12.5 µM (≈ 21.1 µg/mL)
- IC50 [1]: 57 ± 20 µM
- IC50 [2]: 78 ± 16 µM
- IC50 [3]: 84 ± 8 µM
- IC50 [4]: 73 µM
- MIC [5]: 0.20 µM (≈ 0.337 µg/mL)
- MIC-fold improvement vs. vancomycin [5]: 4
- MIC (S. aureus VISA/HIP5827): 0.20 µM (≈ 0.337 µg/mL)
- MIC-fold improvement vs. vancomycin (S. aureus VISA/HIP5827): 32
- MIC (S. aureus VRSA): 0.78 µM (≈ 1.31 µg/mL)
- MIC-fold improvement vs. vancomycin (S. aureus VRSA): 128
- MIC-fold improvement vs. vancomycin (MRSA KS2): 4
- MIC (MRSA KS2): 0.20 µM (≈ 0.337 µg/mL)
- MIC-fold improvement vs. vancomycin (MRSA KS6): 2
- MIC (MRSA KS6): 0.39 µM (≈ 0.657 µg/mL)
- MIC-fold improvement vs. vancomycin (MRSA KS89): 2
- MIC (MRSA KS89): 0.39 µM (≈ 0.657 µg/mL)
- MIC-fold improvement vs. vancomycin (MRSA KS1): 2
- MIC (MRSA KS1): 0.39 µM (≈ 0.657 µg/mL)

From paper PMC6001238, “Iterative Chemical Engineering of Vancomycin Leads to Novel Vancomycin Analogs With a High in Vitro Therapeutic Index” (Frontiers in Microbiology, 2018)
